These compounds were tested against T1, glucan synthase (GS) (Candida albicans, UniProt O13428) (assay: Glucan synthase inhibition (polymerization assay, 96-well, 3H-UDPG incorporation)). Conditions: glucan synthase prepared from Candida albicans MY1055; 60 min incubation at 22°C; read-out: Candida Albicans GS IC50 (ng/mL) (converted).
T1 construct: Extraction of GS activity from membranes was performed at a protein concentration of 5 mg/mL in extraction buffer; endogenous in cells; host or cells: Candida albicans MY1055 (membrane fraction, detergent extract, product entrapment)
T1 sequence (O13428 1-1897): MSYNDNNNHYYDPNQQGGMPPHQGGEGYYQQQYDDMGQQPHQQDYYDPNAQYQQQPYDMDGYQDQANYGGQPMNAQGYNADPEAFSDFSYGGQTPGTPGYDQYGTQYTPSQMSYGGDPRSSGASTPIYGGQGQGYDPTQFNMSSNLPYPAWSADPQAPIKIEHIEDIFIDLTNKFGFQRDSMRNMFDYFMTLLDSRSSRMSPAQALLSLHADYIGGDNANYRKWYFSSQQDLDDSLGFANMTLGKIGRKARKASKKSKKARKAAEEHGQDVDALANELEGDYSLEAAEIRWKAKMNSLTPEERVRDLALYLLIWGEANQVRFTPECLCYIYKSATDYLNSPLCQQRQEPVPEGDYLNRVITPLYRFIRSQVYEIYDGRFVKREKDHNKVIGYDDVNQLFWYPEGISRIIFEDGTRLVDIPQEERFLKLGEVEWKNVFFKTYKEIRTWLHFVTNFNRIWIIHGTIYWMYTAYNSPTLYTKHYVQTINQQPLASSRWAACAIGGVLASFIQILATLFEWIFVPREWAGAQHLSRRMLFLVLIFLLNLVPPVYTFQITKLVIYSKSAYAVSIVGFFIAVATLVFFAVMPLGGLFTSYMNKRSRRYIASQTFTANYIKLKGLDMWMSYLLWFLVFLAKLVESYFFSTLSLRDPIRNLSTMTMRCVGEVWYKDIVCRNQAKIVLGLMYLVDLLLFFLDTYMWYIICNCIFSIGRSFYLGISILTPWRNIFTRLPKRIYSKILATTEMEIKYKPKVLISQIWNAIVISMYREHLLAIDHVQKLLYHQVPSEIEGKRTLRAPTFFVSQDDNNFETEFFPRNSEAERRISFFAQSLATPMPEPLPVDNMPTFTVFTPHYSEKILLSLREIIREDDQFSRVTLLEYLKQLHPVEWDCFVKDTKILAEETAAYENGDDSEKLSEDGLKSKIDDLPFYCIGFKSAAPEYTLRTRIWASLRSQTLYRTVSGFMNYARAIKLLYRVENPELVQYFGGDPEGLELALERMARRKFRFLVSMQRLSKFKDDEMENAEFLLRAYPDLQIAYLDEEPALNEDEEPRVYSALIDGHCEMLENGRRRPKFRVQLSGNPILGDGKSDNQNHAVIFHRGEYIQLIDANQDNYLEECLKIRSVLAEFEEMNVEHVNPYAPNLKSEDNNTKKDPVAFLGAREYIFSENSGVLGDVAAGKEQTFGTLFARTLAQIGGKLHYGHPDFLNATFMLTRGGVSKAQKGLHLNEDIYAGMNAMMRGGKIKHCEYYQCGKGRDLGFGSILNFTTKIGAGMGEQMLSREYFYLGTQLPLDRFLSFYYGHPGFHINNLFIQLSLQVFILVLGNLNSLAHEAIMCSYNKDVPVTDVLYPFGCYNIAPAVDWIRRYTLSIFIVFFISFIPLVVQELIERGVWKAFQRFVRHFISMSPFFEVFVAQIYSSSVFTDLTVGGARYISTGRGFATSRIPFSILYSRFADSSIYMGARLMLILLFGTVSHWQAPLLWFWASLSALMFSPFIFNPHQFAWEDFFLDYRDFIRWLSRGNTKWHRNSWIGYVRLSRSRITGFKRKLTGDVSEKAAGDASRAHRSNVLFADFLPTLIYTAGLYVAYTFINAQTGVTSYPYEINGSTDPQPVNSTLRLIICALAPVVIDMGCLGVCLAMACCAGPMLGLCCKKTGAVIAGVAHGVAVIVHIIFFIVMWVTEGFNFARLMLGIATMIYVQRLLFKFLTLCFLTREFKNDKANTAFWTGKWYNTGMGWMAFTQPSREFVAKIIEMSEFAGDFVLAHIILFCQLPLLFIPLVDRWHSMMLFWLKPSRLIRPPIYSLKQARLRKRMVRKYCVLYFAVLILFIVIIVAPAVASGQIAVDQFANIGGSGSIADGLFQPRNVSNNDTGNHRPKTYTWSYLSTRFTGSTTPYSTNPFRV
T1 sequence (O42825 1-195 partner limits assumed): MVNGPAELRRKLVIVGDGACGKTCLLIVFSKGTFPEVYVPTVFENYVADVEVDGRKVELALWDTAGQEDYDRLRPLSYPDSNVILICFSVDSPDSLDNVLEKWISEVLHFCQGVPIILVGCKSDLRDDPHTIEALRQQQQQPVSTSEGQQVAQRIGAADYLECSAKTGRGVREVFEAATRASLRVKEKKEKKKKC
Type: biochemical
Procedure: The in vitro evaluation of glucan synthase inhibitory activity of compounds was measured in a polymerization assay in 96-well format. Each well contained 100 µL of ^3H-UDPG at 0.5 mM (6000 to 8000 dpm/nmol), 50 mM HEPES pH 7.5 (Sigma), 10% w/v glycerol (Sigma), 1.5 mg/mL bovine serum albumin (Sigma A 9647. Lot 44H0190), 25 mM KF (Fisher), 1 mM EDTA (Gibco ULTRAPURE), 25 µM GTP-γ-S, enzyme sufficient to give 3 to 6 nmoles incorporation during the 60 min incubation at 22°C, and test compound added from wells in 3-fold serial dilutions in 100% DMSO (1 µL/well). The reaction was stopped by the addition of 100 µL of 20% trichloroacetic acid. Plates were chilled for a minimum of 10 min, and precipitated glucan collected by filtration on GF/C plates (Packard UNIFILTER®-96), washed with 5 cycles of water (about 1 mL/well each cycle) using a Packard FILTERMATE HARVESTER. 40 µL/well scintillation fluid (Packard ULTIMA GOLD TM-XR) was added and the sealed plates counted in a WALLAC BETA counter in top-counting mode at an efficiency of approximately 40%.
Stock solutions were stored at 10 mg/mL in DMSO at -20°C. For each new enzyme preparation, the initial titration performed started at 1 mg/mL, which was prepared by making a 10-fold dilution in DMSO (5 µL to 50 µL). 40 µL of this stock was placed in column 12 of a round-bottomed 96-well microtiter plate. 40 µL DMSO was added to columns 1 to 11 in the same row and ten 3-fold serial dilutions performed, by transferring 20 µL from column 12 to column 11 etc., with 4 mixings before each transfer. No test compound was transferred to from column 2 to column 1. Duplicate aliquots of 1 µL of all 12 dilutions were then transferred to the side walls of a 96-well Bioblock 1.1 mL plate (Fisher brand) to create two rows.
Graphs of the primary data were created in PRISM software (the average of two determinations) using PRISM's curve fitting program (sigmoidal dose response non-linear regression). The amount of compound required to inhibit glucan synthase activity by 50% in this assay (IC50 - ng/mL) was calculated.
Routine analysis was performed with glucan synthase (GS) prepared from Candida albicans MY1055 by the following procedure: MY1055 was grown in 10 liters YPD medium (10 g yeast extract, 20 g tryptone, 20 g glucose per liter) with vigorous shaking at 30°C, to early stationary phase. Cells were harvested by centrifugation, the pellet was washed and frozen at -70°C until breakage. Thawed pellets were shaken with an equal volume of breakage buffer (50 mM HEPES pH 7.4, 10% glycerol, 1 mM EDTA, 1 mM PMSF, 1mM DTT) and 4 times their weight of 0.5 mm acid washed glass beads for 2 hours at 4°C. Extent of breakage was assessed visually at 40x magnification. After low speed centrifugation to remove cell debris, the supernatant was centrifuged at 100,000 x g for 60 min. to separate membranes plus ribosomes from cytoplasmic components. Membranes were further washed two additional times with breakage buffer using the same centrifugation conditions and finally suspended in breakage buffer at 25 to 30 mg/mL protein (Biorad) for storage at -70°C. Extraction of GS activity from membranes was performed at a protein concentration of 5 mg/mL in extraction buffer (50mM NaPO4 pH 7.5, 0.1 M KCl, 0.1M Na citrate, 20% glycerol, 5 µM GTP-γ-S, 1mM DTT, 1 mM PMSF, 3 µg/mL pepstatin) plus 0.25% W1 by gentle mixing at 4°C for 60 min, followed by centrifugation at 100,000 x g for 60 min. After centrifugation, clear supernatant was removed from a pellet consisting of a hard layer usually with small amounts of gelatinous unextracted membranes above it.
Trapping was initiated immediately by 5-fold dilution in trapping buffer (50 mM HEPES pH 7.5, 10 mM KF, 1 mM EDTA, 2 mg/mL BSA) plus 2.5 mM UDPG and 10µM GTP-γ-S. After incubation at 25°C for 60 to 90 minutes, glucan was harvested by low speed centrifugation (3,000 x g, 10 min). […]
With `CC(C)[C@@H](C)[C@@]1(C)CC[C@]2(C)[C@H]3CC[C@@H]4[C@@]5(COC[C@@]4(C)[C@@H](OC[C@](C)(N)C(C)(C)C)[C@H](n4ncnc4-c4ccnnc4)C5)C3=CC[C@@]2(C)[C@@H]1C(=O)O` [Example 202, (1S,4aR,6aS,7R,8R,10aR,10bR,12aR,14R,15R)-15-[[(2R)-2-amino-2,3,3-trimethylbutyl]oxy]-8-[(1R)-1,2-dimethylpropyl]-14-[5-(4-pyridazinyl)-1H-1,2,4-triazol-1-yl]-1,6,6a,7,8,9,10,10a,10b,11,12,12a-dodecahydro-1,6a,8,10a-tetramethyl-4H-1,4a-propano-2H-phenanthro[1,2-c]pyran-7-carboxylic acid] the IC50 was 0.274 nM.
`CN[C@@](C)(CO[C@H]1[C@H](n2ncnc2-c2ccncc2)C[C@@]23COC[C@]1(C)[C@@H]2CC[C@H]1C3=CC[C@@]2(C)[C@H](C(=O)O)[C@@](C)([C@H](C)C(C)C)CC[C@]12C)C(C)(C)C` [Example 174, (1S,4aR,6aS,7R,8R,10aR,10bR,12aR,14R,15R)-8-[(1R)-1,2-dimethylpropyl]-14-[5-(4-pyridinyl)-1H-1,2,4-triazol-1-yl]-15-[[(2R)-2,3,3-trimethyl-2-(methylamino)butyl]oxy]-1,6,6a,7,8,9,10,10a,10b,11,12,12a-dodecahydro-1,6a,8,10a-tetramethyl-4H-1,4a-propano-2H-phenanthro[1,2-c]pyran-7-carboxylic acid] showed an IC50 of 2.69 nM.
With `CC(C)[C@@H](C)[C@@]1(C)CC[C@]2(C)[C@H]3CC[C@@H]4[C@@]5(COC[C@@]4(C)[C@@H](OCC4(N)CCOCC4)[C@H](n4ncnc4-c4ccncn4)C5)C3=CC[C@@]2(C)[C@@H]1C(=O)O` [Example 256, (1S,4aR,6aS,7R,8R,10aR,10bR,12aR,14R,15R)-15-[(4-aminotetrahydro-2H-pyran-4-yl)methoxy]-8-[(1R)-1,2-dimethylpropyl]-14-[5-(4-pyrimidinyl)-1H-1,2,4-triazol-1-yl]-1,6,6a,7,8,9,10,10a,10b,11,12,12a-dodecahydro-1,6a,8,10a-tetramethyl-4H-1,4a-propano-2H-phenanthro[1,2-c]pyran-7-carboxylic acid] the IC50 was 6.84 nM.
With `CNC(=O)c1ncnn1[C@@H]1C[C@@]23COC[C@](C)([C@@H]2CC[C@H]2C3=CC(=O)[C@@]3(C)[C@H](C(=O)O)[C@@](C)([C@H](C)C(C)C)CC[C@]23C)[C@H]1OC[C@](C)(NC)C(C)C` [Example 40, (1S,4aR,6aS,7R,8R,10aR,10bR,12aR,14R,15R)-15-[[(2R)-2,3-dimethyl-2-(methylamino)butyl]oxy]-8-[(1R)-1,2-dimethylpropyl]-14-[5-[(methylamino)carbonyl]-1H-1,2,4-triazol-1-yl]-1,6,6a,7,8,9,10,10a,10b,11,12,12a-dodecahydro-1,6a,8,10a-tetramethyl-6-oxo-4H-1,4a-propano-2H-phenanthro[1,2-c]pyran-7-carboxylic acid] the IC50 was 24.9 nM.
`CC(C)[C@@H](C)[C@@]1(C)CC[C@]2(C)[C@H]3CC[C@@H]4[C@@]5(COC[C@@]4(C)[C@@H](OC[C@](C)(N)C(C)C)[C@H](n4ncnc4-c4ccncn4)C5)C3=CC[C@@]2(C)[C@@H]1C(=O)O` [Example 190, (1S,4aR,6aS,7R,8R,10aR,10bR,12aR,14R,15R)-15-[[(2R)-2-amino-2,3-dimethylbutyl]oxy]-8-[(1R)-1,2-dimethylpropyl]-14-[5-(4-pyrimidinyl)-1H-1,2,4-triazol-1-yl]-1,6,6a,7,8,9,10,10a,10b,11,12,12a-dodecahydro-1,6a,8,10a-tetramethyl-4H-1,4a-propano-2H-phenanthro[1,2-c]pyran-7-carboxylic acid] was tested, and the IC50 was 4.18 nM.
`CNC1(CO[C@H]2[C@H](n3ncnc3-c3ccncc3)C[C@@]34COC[C@]2(C)[C@@H]3CC[C@H]2C4=CC[C@@]3(C)[C@H](C(=O)O)[C@@](C)([C@H](C)C(C)C)CC[C@]23C)CCOCC1` [Example 181, (1S,4aR,6aS,7R,8R,10aR,10bR,12aR,14R,15R)-8-[(1R)-1,2-dimethylpropyl]-14-[5-(4-pyridinyl)-1H-1,2,4-triazol-1-yl]-15-[[tetrahydro-4-(methylamino)-2H-pyran-4-yl]methoxy]-1,6,6a,7,8,9,10,10a,10b,11,12,12a-dodecahydro-1,6a,8,10a-tetramethyl-4H-1,4a-propano-2H-phenanthro[1,2-c]pyran-7-carboxylic acid] gave an IC50 of 10.8 nM.
